In patent US11878970B2, “Allosteric chromenone inhibitors of phosphoinositide 3-kinase (PI3K) for the treatment of disease” (Petra Pharma Corporation, priority 2021, dated 2024) one finds IC50 data, which are given here for 20 compounds.

Bounds are passed on as bounds.

Experiment [1] deals with T1, PI3K-α (PIK3CA) wild-type (WT), p110α/p85α complex (Homo sapiens, UniProt P42336).
T1 construct: Recombinant, catalytically active human full length PIK3KA Wild-type and H1047R mutant; 6×His (N); purchased EMD Millipore Sigma 14-602M
The experiment is described as follows: PI3K-alpha kinase (PIK3CA) biochemical activity, ADP-Glo, wild-type. The procedure, abridged:
(§1)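 ADP formation measured by ADP-Glo luminescence after reaction at 27 °C to about 10% ATP turnover, using 20 uM ATP, 50 uM PIP2diC8 or soy PI lipid, HEPES pH 7.4 with MgCl2. Enzyme (1-5 nM WT or H1047R p110α/p85α) and compound preincubated 1 h first; 10-point 1:3 curves fitted four-parameter for IC50.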
Background: In ADP-Glo the light output rises with the ADP produced.

The target of experiment [2] is T2, PI3K-α (PIK3CA) H1047R mutant, p110α/p85α complex (Homo sapiens, UniProt P42336, H1047R).
T2 construct: Recombinant, catalytically active human full length PIK3KA Wild-type and H1047R mutant; 6×His (N); purchased EMD Millipore Sigma 14-792M
T2 sequence (P42336 whole entry H1047R): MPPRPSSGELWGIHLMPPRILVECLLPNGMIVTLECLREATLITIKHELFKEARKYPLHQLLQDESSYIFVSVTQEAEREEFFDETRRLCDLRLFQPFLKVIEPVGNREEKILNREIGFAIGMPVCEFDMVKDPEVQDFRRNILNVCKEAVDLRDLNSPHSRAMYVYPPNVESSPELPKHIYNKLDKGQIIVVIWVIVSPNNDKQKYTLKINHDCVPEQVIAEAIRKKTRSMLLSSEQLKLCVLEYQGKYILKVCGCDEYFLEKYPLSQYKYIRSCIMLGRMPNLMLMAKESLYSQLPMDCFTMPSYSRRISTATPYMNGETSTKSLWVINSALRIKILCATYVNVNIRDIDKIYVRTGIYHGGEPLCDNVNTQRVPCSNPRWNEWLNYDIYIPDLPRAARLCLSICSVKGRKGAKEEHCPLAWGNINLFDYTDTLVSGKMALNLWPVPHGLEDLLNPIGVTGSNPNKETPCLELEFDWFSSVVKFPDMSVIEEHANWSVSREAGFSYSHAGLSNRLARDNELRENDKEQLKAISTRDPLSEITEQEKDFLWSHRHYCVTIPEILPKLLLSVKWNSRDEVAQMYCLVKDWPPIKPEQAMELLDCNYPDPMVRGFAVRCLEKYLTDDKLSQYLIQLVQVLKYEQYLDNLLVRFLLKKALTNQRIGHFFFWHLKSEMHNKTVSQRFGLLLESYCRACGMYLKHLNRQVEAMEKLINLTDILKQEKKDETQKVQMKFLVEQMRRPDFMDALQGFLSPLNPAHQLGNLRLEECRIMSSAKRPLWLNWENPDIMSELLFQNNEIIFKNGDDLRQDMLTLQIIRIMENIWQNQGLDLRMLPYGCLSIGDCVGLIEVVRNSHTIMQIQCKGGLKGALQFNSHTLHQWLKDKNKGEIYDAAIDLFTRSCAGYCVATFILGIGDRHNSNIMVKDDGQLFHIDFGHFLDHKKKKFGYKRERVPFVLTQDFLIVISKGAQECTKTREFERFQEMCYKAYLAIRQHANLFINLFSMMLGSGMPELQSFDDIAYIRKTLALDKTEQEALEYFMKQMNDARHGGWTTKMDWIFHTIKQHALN
T2 sequence (P27986 whole entry partner): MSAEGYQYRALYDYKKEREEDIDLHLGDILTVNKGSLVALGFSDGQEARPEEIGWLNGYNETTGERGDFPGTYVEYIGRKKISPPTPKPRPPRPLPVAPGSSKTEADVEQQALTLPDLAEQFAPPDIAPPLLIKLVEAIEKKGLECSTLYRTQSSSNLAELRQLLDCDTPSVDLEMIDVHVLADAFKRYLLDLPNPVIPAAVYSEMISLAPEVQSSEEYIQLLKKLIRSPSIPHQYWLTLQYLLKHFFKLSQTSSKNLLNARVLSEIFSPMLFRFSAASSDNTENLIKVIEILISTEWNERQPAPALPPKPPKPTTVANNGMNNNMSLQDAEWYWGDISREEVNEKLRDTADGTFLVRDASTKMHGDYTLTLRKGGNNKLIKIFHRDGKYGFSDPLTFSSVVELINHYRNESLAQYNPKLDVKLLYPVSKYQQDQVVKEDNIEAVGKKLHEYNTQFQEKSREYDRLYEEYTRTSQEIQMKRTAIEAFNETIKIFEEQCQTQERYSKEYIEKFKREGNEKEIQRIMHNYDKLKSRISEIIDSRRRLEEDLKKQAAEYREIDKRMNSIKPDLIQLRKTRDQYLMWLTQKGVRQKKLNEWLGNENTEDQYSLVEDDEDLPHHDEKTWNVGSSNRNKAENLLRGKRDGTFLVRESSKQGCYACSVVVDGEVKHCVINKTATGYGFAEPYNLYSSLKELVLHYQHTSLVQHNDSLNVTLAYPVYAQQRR
The experiment is described as follows: PI3K-alpha kinase (PIK3CA) biochemical activity, ADP-Glo, H1047R mutant. The procedure, abridged: as §1

The mark [3] stands for this setting: PIP2diC8 lipid substrate (footnote 1).

As to `Cc1cc(C(C)Nc2ccccc2C(=O)O)c2oc(-c3ccc4nn(C)cc4n3)c(C)c(=O)c2c1` (single isomer, unassigned) [Example 130, 2-[1-[3,6-Dimethyl-2-(2-methylpyrazolo[4,3-b]pyridin-5-yl)-4-oxo-chromen-8-yl]ethylamino]benzoic acid], the figures for the IC50 in experiment [1] (Soy PI lipid substrate) and in experiment [2] (Soy PI lipid substrate) were 500 to 1000 nM and under 500 nM, respectively.
Take `Cc1cc(C(C)Nc2ccccc2C(=O)O)c2oc(-c3ccc4nc(C(F)(F)F)cn4c3)c(C)c(=O)c2c1` (single isomer, unassigned) [Example 186, 2-[1-[3,6-Dimethyl-4-oxo-2-[2-(trifluoromethyl)imidazo[1,2-a]pyridin-6-yl]chromen-8-yl]ethylamino]benzoic acid]: the IC50 in experiment [1] (Soy PI lipid substrate) is 1000 to 5000 nM; in experiment [2] (Soy PI lipid substrate) it was under 500 nM.
On to `Cc1cc(C(C)Nc2ccccc2C(=O)O)c2oc(-c3ccc4nc(C)cn4n3)cc(=O)c2c1` (single isomer, unassigned) [Example 69, 2-[1-[6-Methyl-2-(2-methylimidazo[1,2-b]pyridazin-6-yl)-4-oxo-chromen-8-yl]ethylamino]benzoic acid], for which the values for the IC50 in experiment [1] (Soy PI lipid substrate) and in experiment [2] (Soy PI lipid substrate) were 1000 to 5000 nM and under 500 nM, respectively.
Turning to `Cc1cc(C(C)Nc2ccccc2C(=O)O)c2oc(-c3cccn4ccnc34)cc(=O)c2c1` (single isomer, unassigned) [Example 127, 2-[1-(2-Imidazo[1,2-a]pyridin-8-yl-6-methyl-4-oxo-chromen-8-yl)ethylamino]benzoic acid], the figures for the IC50 in experiment [1] (Soy PI lipid substrate) and in experiment [2] (Soy PI lipid substrate) were 5000 to 10000 nM and 500 to 1000 nM, respectively.
Taken in the same sequence, the figures for `Cc1cc(C(C)Nc2ccccc2C(=O)O)c2oc(-c3ccc4ccnn4c3)cc(=O)c2c1` (single isomer, unassigned) [Example 67, 2-[1-(6-Methyl-4-oxo-2-pyrazolo[1,5-a]pyridin-6-yl-chromen-8-yl)ethylamino]benzoic acid] were 1000 to 5000 nM and under 500 nM.
Taken in the same sequence, the figures for `Cc1cc(C(C)Nc2ccccc2C(=O)O)c2oc(-c3ccc4nc(C)cn4c3)cc(=O)c2c1` (single isomer, unassigned) [Example 38, 2-[1-[6-Methyl-2-(2-methylimidazo[1,2-a]pyridin-6-yl)-4-oxo-chromen-8-yl]ethylamino]benzoic acid] were 1000 to 5000 nM and under 500 nM.
For the compound `Cc1cc(C(C)Nc2ccccc2C(=O)O)c2oc(-c3nccc4cnn(C)c34)cc(=O)c2c1` (single isomer, unassigned) [Example 96, 2-[1-[6-Methyl-2-(1-methylpyrazolo[3,4-c]pyridin-7-yl)-4-oxo-chromen-8-yl]ethylamino]benzoic acid], the figures for the IC50 in experiment [1] (Soy PI lipid substrate) and in experiment [2] (Soy PI lipid substrate) were 5000 to 10000 nM and 1000 to 5000 nM, respectively.
For `Cc1cn2nc(-c3cc(=O)c4cc(C(F)(F)F)cc(C(C)Nc5ccccc5C(=O)O)c4o3)ccc2n1` (single isomer, unassigned) [Example 101, 2-[1-[2-(2-Methylimidazo[1,2-b]pyridazin-6-yl)-4-oxo-6-(trifluoromethyl)chromen-8-yl]ethylamino]benzoic acid], the figures for the IC50 in experiment [1] (Soy PI lipid substrate) and in experiment [2] (Soy PI lipid substrate) were 1000 to 5000 nM and under 500 nM, respectively.
`Cc1cc(C(C)Nc2ccccc2C(=O)O)c2oc(-c3ccc4c(c3)OCO4)cc(=O)c2c1` (single isomer, unassigned) [Example 46, 2-[1-[2-(1,3-Benzodioxol-5-yl)-6-methyl-4-oxo-chromen-8-yl]ethylamino]benzoic acid]: the IC50 in experiment [1] (setting [3]) and in experiment [2] (setting [3]) was under 500 nM throughout.
As for `Cc1cc(C(C)Nc2ccccc2C(=O)O)c2oc(-c3ccc4ccn(C)c4n3)cc(=O)c2c1` (single isomer, unassigned) [Example 159, 2-[1-[6-Methyl-2-(1-methylpyrrolo[2,3-b]pyridin-6-yl)-4-oxo-chromen-8-yl]ethylamino]benzoic acid], the IC50 was 1000 to 5000 nM in experiment [1] (Soy PI lipid substrate) and under 500 nM in experiment [2] (Soy PI lipid substrate).
For the compound `Cc1cc(C(C)Nc2ccccc2C(=O)O)c2oc(-c3cnn4ccccc34)cc(=O)c2c1` (stereo not shown) [Example 10, 2-[1-(6-Methyl-4-oxo-2-pyrazolo[1,5-a]pyridin-3-yl-chromen-8-yl)ethylamino]benzoic acid], the IC50 is 1000 to 5000 nM in experiment [1] (Soy PI lipid substrate) and under 500 nM in experiment [2] (Soy PI lipid substrate).
Consider `Cc1cc(C(C)Nc2ccc(Cl)c(F)c2C(=O)O)c2oc(-c3ccc4nn(C)cc4c3)cc(=O)c2c1` (single isomer, unassigned) [Example 184, 3-Chloro-2-fluoro-6-[1-[6-methyl-2-(2-methylindazol-5-yl)-4-oxo-chromen-8-yl]ethylamino]benzoic acid], for which the IC50 is 500 to 1000 nM in experiment [1] (Soy PI lipid substrate) and under 500 nM in experiment [2] (Soy PI lipid substrate).
Take `Cc1cc(C(C)Nc2ccccc2C(=O)O)c2oc(-c3ccc4c(c3)CN(C)C4=O)cc(=O)c2c1` (single isomer, unassigned) [Example 31, 2-[1-[6-Methyl-2-(2-methyl-1-oxo-isoindolin-5-yl)-4-oxo-chromen-8-yl]ethylamino]benzoic acid]: the figures for the IC50 in experiment [1] (Soy PI lipid substrate) and in experiment [2] (Soy PI lipid substrate) were 1000 to 5000 nM and under 500 nM, respectively.
Taken in the same sequence, the figures for `Cc1cc(C(C)Nc2ccccc2C(=O)O)c2oc(-c3ccc4nncn4c3)cc(=O)c2c1` (single isomer, unassigned) [Example 76, 2-[1-[6-Methyl-4-oxo-2-([1,2,4]triazolo[4,3-a]pyridin-6-yl)chromen-8-yl]ethylamino]benzoic acid] were over 10000 nM and under 500 nM.
`Cc1cc(C(C)Nc2ccccc2C(=O)O)c2oc(-c3cccc4c3cnn4C)cc(=O)c2c1` (single isomer, unassigned) [Example 136, 2-[1-[6-Methyl-2-(1-methylindazol-4-yl)-4-oxo-chromen-8-yl]ethylamino]benzoic acid]: the values for the IC50 in experiment [1] (Soy PI lipid substrate) and in experiment [2] (Soy PI lipid substrate) were 1000 to 5000 nM and under 500 nM, respectively.
As for `Cc1cc(C(C)Nc2ccc(C)nc2C(=O)O)c2oc(-c3cc4ccccc4[nH]3)cc(=O)c2c1` (stereo not shown) [Example 99, 3-[1-[2-(1H-Indol-2-yl)-6-methyl-4-oxo-chromen-8-yl]ethylamino]-6-methyl-pyridine-2-carboxylic acid], the IC50 in experiment [1] (Soy PI lipid substrate) and in experiment [2] (Soy PI lipid substrate) was 1000 to 5000 nM in each case.
Consider `Cc1cc(C(C)Nc2ccccc2C(=O)O)c2oc(-c3ccc4nc(C)cn4n3)c(C)c(=O)c2c1` (single isomer, unassigned) [Example 142, 2-[1-[3,6-Dimethyl-2-(2-methylimidazo[1,2-b]pyridazin-6-yl)-4-oxo-chromen-8-yl]ethylamino]benzoic acid], for which the IC50 in experiment [1] (Soy PI lipid substrate) is 1000 to 5000 nM; in experiment [2] (Soy PI lipid substrate) it was under 500 nM.
Taken in the same sequence, the figures for `Cc1c(-c2ccc3nn(C)cc3c2)oc2c(C(C)Nc3ccccc3C(=O)O)cc(F)cc2c1=O` (single isomer, unassigned) [Example 57, 2-[1-[6-Fluoro-3-methyl-2-(2-methylindazol-5-yl)-4-oxo-chromen-8-yl]ethylamino]benzoic acid] were 1000 to 5000 nM and 1000 to 5000 nM.
With `Cc1cc(C(C)Nc2ccccc2C(=O)O)c2oc(-c3cc4ccncc4o3)cc(=O)c2c1` (single isomer, unassigned) [Example 39, 2-[1-(2-Furo[2,3-c]pyridin-2-yl-6-methyl-4-oxo-chromen-8-yl)ethylamino]benzoic acid], the figures for the IC50 in experiment [1] (Soy PI lipid substrate) and in experiment [2] (Soy PI lipid substrate) were 1000 to 5000 nM and under 500 nM, respectively.
Taken in the same sequence, the figures for `Cc1cc(C(C)Nc2ccc(Cl)nc2C(=O)O)c2oc(-c3ccc4nn(C)cc4c3)cc(=O)c2c1` (single isomer, unassigned) [Example 83, 6-Chloro-3-[1-[6-methyl-2-(2-methylindazol-5-yl)-4-oxo-chromen-8-yl]ethylamino]pyridine-2-carboxylic acid] were 500 to 1000 nM and under 500 nM.

What is called IC50 is the point on the concentration scale where inhibition reaches its midpoint.
